Entries after “also recorded” stand apart in the source; their conditions may differ.
Columns and labels:
OVCAR-8 tumors = assay: OVCAR-8 Tumor Xenograft Efficacy Study (IP); type: in vivo, mouse
Experimental: Animals were dosed IP daily with vehicle alone, C9 (50 or 100 mg/kg), or C12 (25 or 50 mg/kg). […] Tumor volume and body weight assessment performed as described above. After the final dose on day 46, plasma pharmacokinetic analysis was performed as described above except blood was drawn by retro-orbital bleed method.

[1] = system: panel of cell lines (HCC-1806, HCC-1937, BT-549, MDA-MB-157, MCF-7, CAL-51, MDA-MB-453, ZR-75-1, OVCAR-3, OVCAR-5); assay: 96 h cell growth assay (Example 19); type: cell-based; details: Homo sapiens, KIF18A inhibitor-sensitive cells (e.g., OVCAR-3 and BT-549), read-out: Mean Count EC50
Experimental: KIF18A inhibitor cancer cell line sensitivity profiles were determined for KIF18A inhibitor Compounds C9 and C11. Cells of various cancer cell lines were treated with DMSO or increasing concentrations of C9 or C11 for 96 h. The concentration-response profiles of some cancer cell lines (including, e.g., BT-549, OVCAR-3) for C11 were similar. […] Cancer cell lines CAL-51, MDA-MG-453 and OVCAR-5 were insensitive to C9 and C11.
Cell growth assay. A panel of cell lines (HCC-1806, HCC-1937, BT-549, MDA-MB-157, MCF-7, CAL-51, MDA-MB-453, ZR-75-1, OVCAR-3, OVCAR-5) were seeded in 96-well plate at densities optimized for 96 h cell growth assay. The next day, cells were treated with DMSO or one of the following compounds: KIF18A Inhibitor Compounds C9 and C11, or palbociclib, with top concentration of 6 μM (19-point concentration range) using staggered dose method. After 96 h, cells were fixed, stained, imaged, and analyzed as described above. Valid nuclear object counts were determined for each well and Count POC value was computed using the following formula [Count POC=(valid nuclear object count in treated well)+(valid nuclear object count in DMSO treated wells)×100]. Concentration-response curve-fitting was performed by 4-parameter non-linear regression equation using GraphPad Prism 7.05. Mean Count EC50 value was computed for each cell line from two independent experiments run in duplicate. […]

[2] = system: human bone marrow mononuclear cells (HBMNC); assay: BrdU cell cycle analysis and live cell count in normal cells; type: cell-based; details: two normal donors; for BrdU incorporation (cell cycle analysis) relative to DMSO/vehicle control: 48 h, C9, C11, palbociclib 1 μM, ispinesib 0.05 μM, paclitaxel; for live cell count relative to vehicle control: 96 hours
Experimental: The effect KIF18A inhibitor treatment has on proliferation of normal somatic cells (e.g., not neoplastic cells) was tested by assaying proliferation of human bone marrow mononuclear cells (HBMNCs), primary human foreskin fibroblast cells (hFSF) and human mammary epithelial cells via a 5-bromo-2′-deoxyuridine (BrdU) incorporation assay in which BrdU, an analog of the nucleoside thymidine, is used to identify proliferating cells (Payton et. al., Molecular Cancer Therapeutics, 17(12):2575-85 (2018)). Cells were analyzed on BD LSRFortessa flow cytometer using BD FACSDiva software (BD Biosciences), and post-acquisition data analysis was performed using FSC-Express software (De Novo). The percentage of BrdU positive gated events on the stacked DNA content histograms were reported.
To further examine the effects of KIF18A inhibitor treatment on HBMNC, two normal donors were assessed using the BrdU coupled cell cycle assay and cell count assay (96 hours) was. […] In particular, the amount of BrdU-stained proliferating cells treated with Ispinesib, paclitaxel, or a CDK 4/6 inhibitor (palbociclib) was far less than the amount of vehicle control-treated BrdU-stained cells. […] KIF18A inhibitor treatment was also analyzed for impact on live cell count. After 96 hours, live cells were counted by Vi-CELL XR Cell Viability Analyzer (Beckman Coulter).
To investigate whether KIF18A inhibitors could circumvent this normal cell toxicity barrier, we examined the effects of Compounds C9 and C11 on a panel of cycling normal somatic cell types. First, we treated human bone marrow mononuclear cells (HBMNC) from two normal donors with DMSO, Compound C9 and C11 at 1 μM, ispinesib at 0.05 μM, paclitaxel at 0.05 μM, or palbociclib at 1 μM for 48 h (cell cycle) or 96 h (cell growth).
BrdU and cell cycle analysis. Human bone marrow mononuclear cells (HBMNCs) from two normal donors (#37612, #37534) were cultured for 8 days in defined media as previously described (Payton et al 2018). HBMNCs were seeded in 24-well plate at 1.2×10^6 cells per well in duplicate plates. Cells were treated with DMSO, Compound C9 (1 μM), Compound C11 (1 μM), ispinesib (0.05 μM), paclitaxel ([…]), or palbociclib (1 μM). Cells were collected at 48 h (cell cycle) and 96 h (cell growth). The first set of plates were pulsed with BrdU for 2 h and processing for BrdU cell cycle analysis as previously described (Payton et al 2018). Cells were analyzed on BD LSRFortessa flow cytometer running BD FACSDiva software and post-acquisition data analysis was performed using FSC-Express software. Data was reported for the percentage of BrdU and subG1 gated populations. The second set of plates were collected, and cells counted using Vi-CELL XR Cell Viability Analyzer (Beckman Coulter).

OVCAR-3 HGSOC cells = assay: Time course Western blot of cell cycle and apoptosis proteins; type: cell-based, human; details: 0.5 μM; release from double thymidine block, 4-24 hours
Experimental: OVCAR-3 HGSOC cells were seeded at a density of 1.4 million cells into 100 mm tissue culture plates in 10 mL of complete growth media. The next day, complete growth media containing 2 mM thymidine was added to the cells and incubated for 16 hours. Cells were washed thrice in 1×PBS before adding complete growth media for 8 hours, followed by and second 2 mM thymidine block for 16 hours. The double thymidine block arrested cells in G1/S phase of the cell cycle. Cells were release from G1/S block by first washing thrice in 1×PBS before adding complete growth media with DMSO or KIF18A inhibitor (Compound C11 at 0.5 μM). Cell lysates were prepared at multiple time points (4, 8, 10, 12, 14, and 24 hours). As controls, asynchronous growing OVCAR-3 cells were treated DMSO or KIF18A inhibitor (Compound C11 at 0.5 μM) and lysates were prepared at 24 hours. Primary antibodies included mouse anti-cleaved-PARP (cl-PARP) (51-900017, BD Pharmingen, 1:500), mouse anti-cyclin B1 (554179, BD Pharmingen, 1:500), rabbit anti-Mcl-1 (5453, Cell Signaling, 1:500), mouse anti-Cyclin E1 (MS-870-P, HE12, NeoMarkers, 1:2000), mouse anti-BubR1 (612503, BD Pharmingen, 1:5000), and rabbit anti-KIF18A (HPA039484, Simga, 1:2000), and mouse anti-β-actin (A5441, Simga, 1:5000).

| Structure (SMILES) | tumor regression (OVCAR-8 tumors; 50 mg/kg IP once daily for 18 consecutive days) [%] | tumor regression (OVCAR-8 tumors; 100 mg/kg IP once daily for 18 consecutive days) [%] | EC50 [1] [nM] | BrdU incorporation (cell cycle analysis) relative to DMSO/vehicle control [2] | live cell count relative to vehicle control [2] | KIF18A and BubR1 protein levels (OVCAR-3 HGSOC cells) | cyclin B1, cl-PARP, Mcl-1 and cyclin E1 protein levels (OVCAR-3 HGSOC cells) |
| --- | --- | --- | --- | --- | --- | --- | --- |
| CC(C)(C)NS(=O)(=O)c1cccc(NC(=O)c2ccc(S(=O)(=O)NC(C)(C)C)cc2N2CCC3(CC2)CC3)c1 [Compound C9, 4-(N-(tert-butyl)sulfamoyl)-N-(3-(N-(tert-butyl)sulfamoyl)phenyl)-2-(6-azaspiro[2.5]octan-6-yl)benzamide] | 16 | 73 | 21 | about the same; also recorded: minimal diminution in BrdU incorporation | little to no effect; also recorded: comparable cell counts |  |  |
| CC(C)(CO)Nc1ccc(C(=O)Nc2cccc(S(=O)(=O)C3CCCC3)c2)c(N2CCC3(CC2)CC3)n1 [Compound C11, N-(3-(cyclopentylsulfonyl)phenyl)-6-((1-hydroxy-2-methylpropan-2-yl)amino)-2-(6-azaspiro[2.5]octan-6-yl)nicotinamide] |  |  | 47 | about the same; also recorded: minimal diminution in BrdU incorporation | little to no effect; also recorded: comparable cell counts | increase in KIF18A and BubR1 protein levels | increase in cyclin B1 and cl-PARP protein levels and a decrease in Mcl-1 and cyclin E1 levels |
